Measured values: ChEMBL document CHEMBL5154818, “Development of oxoisoaporphine derivatives with topoisomerase I inhibition and reversal of multidrug resistance in breast cancer MCF-7/ADR cells” (Eur J Med Chem, 2022)
Calls of active or inactive are those of the source. No cut-off for these calls is given here.

What was measured:
Danio rerio = species on record: Danio rerio; assay: Induction of apoptosis in zebrafish embryo assessed as increase intracellular ROS level at 0.01 to 1 uM measured by DCFH-DA dye based flow cytometric analysis; type: functional, organism-based; conditions: dose 0.01-1 µM
MCF7 [1] = assay: Induction of cell cycle arrest in human MCF7 cells assessed accumulation of cells at G2 phase at 4 uM measured after 48 hrs by propidium iodide staining based flow cytometric analysis (reference value: 37.81%); type: functional
[2] = Toxicity in BALB/c nude mouse xenografted with human MCF7 cells assessed as increase in survival rate at 10 mg/kg, ip administered 3 times a week for 3 weeks; type: organism-based; conditions: in vivo, 504 h
NCI/ADR-RES = assay: Induction of apoptosis in human MCF7/ADR cells assessed as decrease in Bcl-2 expression at 5 to 20 uM measured after 24 hrs by Western blotting analysis; type: functional, cell-based; conditions: dose 5-20 µM
HepG2 = assay: Antiproliferative activity against human HepG2 cells after 48 hrs by MTT assay; type: functional, cell-based; conditions: HepG2, 48 h
[3] = Toxicity in BALB/c nude mouse xenografted with human MCF7 cells assessed as spleen tissue damage at 1 to 10 mg/kg, ip administered 3 times a week for 3 weeks; type: organism-based; conditions: in vivo, 504 h, dose 1-10 mg/kg
MCF7 [4] = assay: Antiproliferative activity against human MCF7 cells assessed as growth inhibition at 3 uM after 48 hrs by MTT assay relative to control; type: functional; conditions: read-out: GI
MCF7 [5] = assay: Induction of cell cycle arrest in human MCF7 cells assessed accumulation of cells at S phase at 2 uM measured after 48 hrs by propidium iodide staining based flow cytometric analysis (reference value: 27.53%); type: functional
MCF7 [6] = assay: Induction of apoptosis in human MCF7 cells assessed as late apoptotic cells at 2 to 8 uM incubated for 48 hrs by Annexin V-FITC/propidium iodide staining based flow cytometry analysis; type: functional; conditions: dose 2-8 µM
[7] = target: ATP-dependent translocase ABCB1 (Homo sapiens, UniProt P08183); assay: Inhibition of P-gp-mediated multidrug resistance in human MCF7/ADR cells assessed as decrease in P-gp expression at 20 uM measured after 24 hrs by Western blot analysis; type: cell-based; conditions: NCI/ADR-RES
[8] = Toxicity in BALB/c nude mouse xenografted with human MCF7 cells assessed as lung tissue damage at 1 to 10 mg/kg, ip administered 3 times a week for 3 weeks; type: organism-based; conditions: in vivo, 504 h, dose 1-10 mg/kg
MCF7 [9] = assay: Antiproliferative activity against human MCF7 cells after 48 hrs by MTT assay; type: functional, cell-based; conditions: MCF7, 48 h
MCF7 [10] = assay: Induction of apoptosis in human MCF7 cells assessed as increase in cleaved caspase-3 expression 1.5 to 6 uM incubated for 24 hrs by Western blotting analysis; type: functional, cell-based; conditions: dose 1.5-6 µM
MCF7 [11] = assay: Induction of cell cycle arrest in human MCF7 cells assessed accumulation of cells at S phase at 8 uM measured after 48 hrs by propidium iodide staining based flow cytometric analysis (reference value: 27.53%); type: functional
MDA-MB-231 = assay: Antiproliferative activity against human MDA-MB-231 cells after 48 hrs by MTT assay; type: functional, cell-based; conditions: MDA-MB-231, 48 h

Chain of ATP-dependent translocase ABCB1 (P08183 whole entry): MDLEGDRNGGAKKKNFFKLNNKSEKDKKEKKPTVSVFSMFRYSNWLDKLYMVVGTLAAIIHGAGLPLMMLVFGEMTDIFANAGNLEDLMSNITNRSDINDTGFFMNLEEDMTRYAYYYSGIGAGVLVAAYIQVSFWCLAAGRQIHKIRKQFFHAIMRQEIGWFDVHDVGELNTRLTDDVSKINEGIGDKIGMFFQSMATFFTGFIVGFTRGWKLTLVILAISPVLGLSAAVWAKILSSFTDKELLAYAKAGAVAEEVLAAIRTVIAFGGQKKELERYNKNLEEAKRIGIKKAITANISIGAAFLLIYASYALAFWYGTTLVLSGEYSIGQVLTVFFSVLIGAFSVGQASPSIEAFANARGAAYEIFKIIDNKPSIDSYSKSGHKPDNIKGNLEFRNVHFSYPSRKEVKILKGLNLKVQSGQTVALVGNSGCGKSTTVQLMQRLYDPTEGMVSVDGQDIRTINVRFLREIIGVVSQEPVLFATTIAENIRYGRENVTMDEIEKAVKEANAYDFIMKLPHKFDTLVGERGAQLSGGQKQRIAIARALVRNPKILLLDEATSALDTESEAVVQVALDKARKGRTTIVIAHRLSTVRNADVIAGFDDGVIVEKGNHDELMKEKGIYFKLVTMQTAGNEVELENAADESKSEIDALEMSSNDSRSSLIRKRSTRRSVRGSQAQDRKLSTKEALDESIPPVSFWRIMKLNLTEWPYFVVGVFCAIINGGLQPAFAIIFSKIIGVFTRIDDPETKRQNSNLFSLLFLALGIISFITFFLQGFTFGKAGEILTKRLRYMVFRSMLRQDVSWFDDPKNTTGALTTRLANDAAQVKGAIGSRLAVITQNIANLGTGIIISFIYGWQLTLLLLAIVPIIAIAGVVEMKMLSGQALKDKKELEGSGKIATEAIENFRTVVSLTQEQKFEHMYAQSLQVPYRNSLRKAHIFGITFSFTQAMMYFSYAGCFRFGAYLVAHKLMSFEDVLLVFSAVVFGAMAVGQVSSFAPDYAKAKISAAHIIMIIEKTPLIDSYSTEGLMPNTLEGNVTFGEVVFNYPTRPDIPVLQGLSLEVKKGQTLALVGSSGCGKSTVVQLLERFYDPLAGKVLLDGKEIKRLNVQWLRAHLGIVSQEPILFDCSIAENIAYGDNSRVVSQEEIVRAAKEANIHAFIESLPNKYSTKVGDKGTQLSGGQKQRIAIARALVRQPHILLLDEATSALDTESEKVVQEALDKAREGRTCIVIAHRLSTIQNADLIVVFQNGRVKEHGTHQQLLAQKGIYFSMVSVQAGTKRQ

CC1CCCCN1CCOc1ccc2c3c(nccc13)-c1ccccc1C2=O (stereo not given)
Activity (Danio rerio): Active | Activity (MCF7 [1]): 32.26% | Activity [2]: Non-Toxic | Activity (NCI/ADR-RES): Active | IC50 (HepG2): 4.88 µM | Activity [3]: Non-Toxic | inhibition of growth at 3 µM (MCF7 [4]): 24.4% | Activity (MCF7 [5]): 25.72% | Activity (MCF7 [6]): 59.5% | inhibition at 20 µM [7]: 18.1% | Activity [8]: Non-Toxic | IC50 (MCF7 [9]): 1.32 µM | Activity (MCF7 [10]): Active | Activity (MCF7 [11]): 24.3% | IC50 (MDA-MB-231): 2.42 µM
